Here are results for 23 compounds from patent US12459921B2, “Isoindoline compound, preparation method, pharmaceutical composition and use thereof” (SHANGHAI INSTITUTE OF MATERIA MEDICA, CHINESE ACADEMY OF …, priority 2018, dated 2025).

Where only a bound is given, the exact number is not on record here.

This assay deals with MM.1S cells. Nature of the assay: Inhibitory effect on the proliferation of MM.1S, MTS cell viability test. In kind it is cell-based. As to conditions: Homo sapiens, MM1.S, 168 h, multiple myeloma MM.1S cells, 7 days incubation, read-out: Tumor cell inhibitory activity. The method, boiled down: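 MM.1S cells (20,000/well, RPMI 1640 with 10% FBS) exposed to 5-fold compound dilutions at 0.2% DMSO for 7 days at 37° C, 5% CO2. MTS added for 3-4 h; OD490-OD690 gave inhibition versus DMSO, IC50 fitted, mean of three experiments.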
(In general: Formazan colour is commonly taken as a measure of viable cells.)
As for `COCCOc1ccc(C2(C#N)CCN(CCCCCc3cccc4c3CN(C3CCC(=O)NC3=O)C4=O)CC2)cc1` (centres unmarked) [Example 264, 1-(5-(2-(2,6-dioxopiperidin-3-yl)-1-oxoisoindolin-4-yl)pentyl)-4-(4-(2-methoxyethoxy)phenyl)piperidine-4-carbonitrile], the IC50 was 100 to 1000 nM.
Next, `O=C1CCC(N2Cc3c(CCCCCN4CCC5(CC4)C(=O)Nc4c(Cl)cccc45)cccc3C2=O)C(=O)N1` (centres unmarked) [Example 279, 3-(4-(5-(7-chloro-2-oxospiro[dihydroindole-3,4-piperidin]-1-yl)pentyl)-1-oxoisoindoline-2-yl)piperidine-2,6-dione]: 100 to 1000 nM; `O=C1CCC(N2Cc3c(OCCCCN4CCN(c5cccc6ccsc56)CC4)cccc3C2=O)C(=O)N1` (centres unmarked) [Example 239, 3-(4-(4-(4-(benzothiophene-7-yl)piperazine-1-yl)butoxy)-1-oxoisoindoline-2-yl)piperidine-2,6-dione]: 1000 to 20000 nM; `N#CC1(c2cccc(OC(F)(F)F)c2)CCN(CCCCc2cccc3c2CN(C2CCC(=O)NC2=O)C3=O)CC1` (centres unmarked) [Example 97, 1-(4-(2-(2,6-dioxopiperidine-3-)-1-oxoisoindoline-4-)butyl)-4-(3-trifluoromethoxyphenyl) piperidine-4-carbonitrile]: under 100 nM.
Next, `O=C1CCC(N2Cc3c(CCC[C@H](NC(=O)C4CC4)C(=O)NCc4ccccc4)cccc3C2=O)C(=O)N1` (stereo partly drawn) [Example 165, N-((2S)-1-(benzylamino)-5-(2-(2,6-dioxopiperidine-3-)-1-oxoisoindoline-4-)-1-oxopentyl-2-)cyclopropylformamide]: under 100 nM; `O=C1CCC(N2Cc3c(CCCCCN4CCC5(CC4)OC(=O)Nc4ncccc45)cccc3C2=O)C(=O)N1` (centres unmarked) [Example 131, 3-(1-oxo-4-(5-(2′-oxo-1′,2′-dihydrospiro[piperidine-4,4′-pyrido[2,3-d][1,3)oxazine)-1-)pentyl)isoindoline-2-)piperidine-2,6-dione]: 100 to 1000 nM; `N#CC1(c2c(Cl)cccc2Cl)CCN(CCCCCc2cccc3c2CN(C2CCC(=O)NC2=O)C3=O)CC1` (centres unmarked) [Example 250, 4-(2,6-dichlorophenyl)-1-(5-(2-(2,6-dioxopiperidin-3-yl)-1-oxoisoindoline-4-yl)pentyl)piperidine-4-carbonitrile]: 100 to 1000 nM.
Next, `O=C1CCC(N2Cc3c(CCCCCN4CCN(c5ccnc6ccccc56)CC4)cccc3C2=O)C(=O)N1` (centres unmarked) [Example 24, 3-(1-oxo-4-(5-(4-(quinoline-4-)piperazine-1-)pentyl)isoindoline-2-)piperidine-2,6-dione]: under 100 nM.
As to `O=C1CCC(N2Cc3c(CCCCCCN4CCC5(CC4)OCc4ccc(Cl)cc45)cccc3C2=O)C(=O)N1` (centres unmarked) [Example 120, 3-(4-(6-(6-chloro-3H-spiro[isobenzofuran-1,4′-piperidine]-1′-)hexyl)-1-oxoisoindoline-2-)piperidine-2,6-dione], the IC50 was under 100 nM.
For `COc1ccc(OC)c(C2(C#N)CCN(CCCCCc3cccc4c3CN(C3CCC(=O)NC3=O)C4=O)CC2)c1` (centres unmarked) [Example 247, 4-(2,5-dimethoxyphenyl)-1-(5-(2-(2,6-dioxopiperidine-3-yl)-1-oxoisoindoline-4-yl)pentyl)piperidine-4-carbonitrile], the IC50 is 100 to 1000 nM.
For `Cc1cccc(N2CCN(CCCCc3cccc4c3CN(C3CCC(=O)NC3=O)C4=O)CC2)c1` (centres unmarked) [Example 40, 3-(1-oxo-4-(4-(4-(3-methylphenyl)piperazine-1-)butyl)isoindoline-2-)piperidine-2,6-dione], the IC50 is under 100 nM.
For the compound `CC(=O)N[C@@H](CCCc1cccc2c1CN(C1CCC(=O)NC1=O)C2=O)C(=O)NCc1ccc(N2CCCC2)cc1` (stereo partly drawn) [Example 186, (2S)-2-acetylamino-5-(2-(2,6-dioxopiperidine-3-)-1-oxoisoindoline-4-)-N-(4-(pyrrolidine-1-)benzyl)pentanamide], the IC50 was in the range of 100 to 1000 nM.
Next, `COc1ccc(C2(C#N)CCN(CCCCCc3cccc4c3CN(C3CCC(=O)NC3=O)C4=O)CC2)c(OC)c1OC` (centres unmarked) [Example 254, 1-(5-(2-(2,6-dioxopiperidin-3-yl)-1-oxoisoindolin-4-yl)pentyl)-4-(2,3,4-trimethoxyphenyl)piperidine-4-carbonitrile]: 1000 to 20000 nM.
For `O=C1CCC(N2Cc3c(OCCCC(=O)N4CCN(c5ccccc5)CC4)cccc3C2=O)C(=O)N1` (centres unmarked) [Example 28, 3-(1-oxo-4-(4-oxo-4-(4-phenylpiperazine-1-)butoxy)isoindoline-2-)piperidine-2,6-dione], the IC50 is under 100 nM.
Next, `O=C1CCC(N2Cc3c(OCCNC(=O)Nc4ccc(Cl)c(Cl)c4)cccc3C2=O)C(=O)N1` (centres unmarked) [Example 163]: 100 to 1000 nM; `N#Cc1cccc(C2(C#N)CCN(CCCOc3cccc4c3CN(C3CCC(=O)NC3=O)C4=O)CC2)c1` (centres unmarked) [Example 67, 4-(3-cyanophenyl)-1-(3-((2-(2,6-dioxopiperidine-3-)-1-oxoisoindoline-4-)oxy)propyl)piperidine-4-carbonitrile]: 100 to 1000 nM.
Turning to `N#CC1(c2ccc(Cl)cc2F)CCN(CCCOc2cccc3c2CN(C2CCC(=O)NC2=O)C3=O)CC1` (centres unmarked) [Example 72, 4-(4-chloro-2-fluorophenyl)-1-(3-((2-(2,6-dioxopiperidine-3-)-1-oxoisoindoline-4-)oxy)propyl)piperidine-4-carbonitrile], the IC50 was under 100 nM.
Next, `N#CC1(c2ccc(OC(F)(F)F)cc2Cl)CCN(CCCCc2cccc3c2CN(C2CCC(=O)NC2=O)C3=O)CC1` (centres unmarked) [Example 257, 4-(2-chloro-4-(trifluoromethoxy)phenyl)-1-(4-(2-(2,6-dioxopiperidin-3-yl)-1-oxoisoindolin-4-yl)butyl)piperidine-4-carbonitrile]: 100 to 1000 nM; `COc1ccc(C2(C#N)CCN(CCCCCc3cccc4c3CN(C3CCC(=O)NC3=O)C4=O)CC2)c(Cl)c1` (centres unmarked) [Example 267, 4-(2-chloro-4-methoxyphenyl)-1-(5-(2-(2,6-dioxopiperidin-3-yl)-1-oxoisoindoline-4-yl)pentyl)piperidine-4-carbonitrile]: 100 to 1000 nM; `N[C@@H](CCCc1cccc2c1CN(C1CCC(=O)NC1=O)C2=O)C(=O)Nc1ccccc1-c1ccccn1` (stereo partly drawn) [Example 170, (2S)-2-amino-5-(2-(2,6-dioxopiperidine-3-)-1-oxoisoindoline-4-)-N-(2-(pyridine-2-)phenyl)pentanamide]: over 20000 nM.
Consider `O=C1CCC(N2Cc3c(CCCCOc4ccnc5ccccc45)cccc3C2=O)C(=O)N1` (centres unmarked) [Example 15, 3-(1-oxo-4-(4-(quinoline-4-oxy)butyl)isoindoline-2-)piperidine-2,6-dione], for which the IC50 was under 100 nM.
As to `O=C1CCC(N2Cc3c(OCCCCCCN4CCC5(CC4)COc4ccccc45)cccc3C2=O)C(=O)N1` (centres unmarked) [Example 148, 3-(4-((6-(2H-spiro[benzofuran-3,4′-piperidine]-1′-)hexyl)oxy)-1-oxoisoindoline-2-)piperidine-2,6-dione], the IC50 is under 100 nM.
Next, `O=C1CCC(N2Cc3c(CCCCCN4CCN(c5cccc(C(F)(F)F)c5)CC4)cccc3C2=O)C(=O)N1` (centres unmarked) [Example 23, 3-(1-oxo-4-(5-(4-(3-trifluoromethylphenyl)piperazine-1-)pentyl)isoindoline-2-)piperidine-2,6-dione]: under 100 nM.
